According to article PMC6375636, “Monotherapy with a low-dose lipopeptide HIV fusion inhibitor maintains long-term viral suppression in rhesus macaques” (PLoS Pathogens, 2019):
Where two headings read alike, the source gives them in different places. Peptide text beside a SMILES is read from it. * marks the point of attachment. Stearoyl = CCCCCCCCCCCCCCCCCC(=O)*; Palmitoyl = CCCCCCCCCCCCCCCC(=O)*

Assays:
[1] = target: HIV-1 89.6; type: cell-based; details: Table 2; 89.6, subtype B, R5X4; mean ± SD of 3 assays in triplicate
Summary of the method: (§1)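 Env-pseudotyped luciferase-reporter viruses (pSG3Δenv backbone) or replication-competent clones made in HEK293T. 3-fold inhibitor dilutions preincubated 1 h at room temperature with 100 TCID50 virus, then added to TZM-bl cells (10^4/well) for 48 h at 37 °C; inhibition read as luciferase activity.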

[2] = target: HIV-1 CH040.c/2625; type: cell-based; details: Table 2; CH040.c/2625, subtype B, R5; mean ± SD of 3 assays in triplicate
Summary of the method: as §1

[3] = target: HIV-1 LAI; type: cell-based; details: Table 2, subtype B, X4, mean ± SD of 3 assays in triplicate
Summary of the method: as §1

[4] = tested on: HIV-1 pseudovirus, primary Env AC10.0.29; type: cell-based; details: Env AC10.0.29, subtype B; mean ± SD of 3 assays in triplicate
Summary of the method: as §1

[5] = tested on: HIV-1 pseudovirus, primary Env AE03; type: cell-based; details: Env AE03, subtype A/E; mean ± SD of 3 assays in triplicate
Summary of the method: as §1

[6] = tested on: HIV-1 pseudovirus, primary Env B01; type: cell-based; details: Env B01, subtype B'; mean ± SD of 3 assays in triplicate
Summary of the method: as §1

[7] = tested on: HIV-1 pseudovirus, primary Env B04; type: cell-based; details: Env B04, subtype B'; mean ± SD of 3 assays in triplicate
Summary of the method: as §1

[8] = tested on: HIV-1 pseudovirus, primary Env CAP210.2.00.E8; type: cell-based; details: Env CAP210.2.00.E8, subtype C; mean ± SD of 3 assays in triplicate
Summary of the method: as §1

[9] = tested on: HIV-1 pseudovirus, primary Env CAP45.2.00.G3; type: cell-based; details: Env CAP45.2.00.G3, subtype C; mean ± SD of 3 assays in triplicate
Summary of the method: as §1

[10] = tested on: HIV-1 pseudovirus, primary Env CH070.1; type: cell-based; details: Env CH070.1, subtype B/C; mean ± SD of 3 assays in triplicate
Summary of the method: as §1

[11] = tested on: HIV-1 pseudovirus, primary Env CH110; type: cell-based; details: Env CH110, subtype B/C; mean ± SD of 3 assays in triplicate
Summary of the method: as §1

[12] = tested on: HIV-1 pseudovirus, primary Env CH119.10; type: cell-based; details: Env CH119.10, subtype B/C; mean ± SD of 3 assays in triplicate
Summary of the method: as §1

[13] = tested on: HIV-1 pseudovirus, primary Env CNE8; type: cell-based; details: Env CNE8, subtype A/E; mean ± SD of 3 assays in triplicate
Summary of the method: as §1

[14] = tested on: HIV-1 pseudovirus, primary Env Du156; type: cell-based; details: Env Du156, subtype C; mean ± SD of 3 assays in triplicate
Summary of the method: as §1

[15] = tested on: HIV-1 pseudovirus, primary Env HIV_25710–2.43; type: cell-based; details: Env HIV_25710–2.43, subtype C; mean ± SD of 3 assays in triplicate
Summary of the method: as §1

[16] = tested on: HIV-1 pseudovirus, primary Env JRFL; type: cell-based; details: subtype B, mean ± SD of 3 assays in triplicate
Summary of the method: as §1

[17] = tested on: HIV-1 pseudovirus, primary Env PVO; type: cell-based; details: subtype B, mean ± SD of 3 assays in triplicate
Summary of the method: as §1

[18] = tested on: HIV-1 pseudovirus, primary Env SF162; type: cell-based; details: Env SF162, subtype B; mean ± SD of 3 assays in triplicate
Summary of the method: as §1

[19] = tested on: HIV-1 pseudovirus, primary Env TRO.11; type: cell-based; details: Env TRO.11, subtype B; mean ± SD of 3 assays in triplicate
Summary of the method: as §1

[20] = tested on: HIV-1 pseudovirus, primary Env ZM53M.PB12; type: cell-based; details: Env ZM53M.PB12, subtype C; mean ± SD of 3 assays in triplicate
Summary of the method: as §1

[21] = tested on: HIV-1 pseudovirus, primary Env pREJO4541; type: cell-based; details: Env pREJO4541, subtype B; mean ± SD of 3 assays in triplicate
Summary of the method: as §1

[22] = target: HIV-1JRCSF; type: cell-based
Summary of the method: as §1

[23] = target: T1, gp41 NHR-derived target mimic peptide N39 (Human immunodeficiency virus type 1 group M subtype B, UniProt P04578); assay: CD spectroscopy of lipopeptides in complex with target mimic peptide N39; type: binding, HIV-1; set-up: [θ]222: unit not given here; details: complex with N39, each peptide 10 μM in PBS; representative of 2 assays
T1 construct: the gp41 NHR-derived target mimic peptide N39
From the text: Spectra were corrected by subtracting a solvent blank.

[24] = lipopeptide alone, 10 μM in PBS, representative of 2 assays; for Helix content (%): [θ]222 / -33,000; for Tm (°C): ellipticity at 222 nm, 20-98°C, 2°C/min
[25] = Fig 1, replication-competent virus, mean ± SD of three assays in triplicate, read-out: Anti-HIV activity (IC50, pM) JRCSF infection
[26] = Table 2, JR-CSF, subtype B, R5, mean ± SD of 3 assays in triplicate, read-out: Mean IC50

T1 sequence (P04578 528-566): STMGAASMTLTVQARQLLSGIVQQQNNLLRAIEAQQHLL

SMILES | IC50 [1] [pM] | IC50 [2] [pM] | IC50 [3] [pM] | IC50 [4] [pM] | IC50 [5] [pM] | IC50 [6] [pM] | IC50 [7] [pM] | IC50 [8] [pM] | IC50 [9] [pM] | IC50 [10] [pM] | IC50 [11] [pM] | IC50 [12] [pM] | IC50 [13] [pM] | IC50 [14] [pM] | IC50 [15] [pM] | IC50 [16] [pM] | IC50 [17] [pM] | IC50 [18] [pM] | IC50 [19] [pM] | IC50 [20] [pM] | also measured
CCCCCCCCCCCCCCCC(=O)NCCCC[C@H](NC(=O)[C@H](CCC(=O)O)NC(=O)[C@H](CC(C)C)NC(=O)[C@H](CCCCN)NC(=O)[C@H](CCCCN)NC(=O)[C@H](CC(C)C)NC(=O)[C@H](CCC(=O)O)NC(=O)[C@H](CCC(=O)O)NC(=O)[C@H](CCC(=O)O)NC(=O)[C@H](CC(N)=O)NC(=O)[C@H](CCCCN)NC(=O)[C@H](CCCCN)NC(=O)[C@H](CCC(N)=O)NC(=O)[C@H](CCC(N)=O)NC(=O)[C@H](CCC(=O)O)NC(=O)[C@H](CCC(=O)O)NC(=O)[C@H](C)NC(=O)[C@H](CCCCN)NC(=O)[C@H](CCCCN)NC(=O)[C@H](CC(C)C)NC(=O)[C@H](CC(C)C)NC(=O)[C@H](CCC(=O)O)NC(=O)[C@H](CCC(=O)O)NC(=O)[C@@H](NC(=O)[C@H](CCCCN)NC(=O)[C@H](CCC(N)=O)NC(=O)[C@H](CCC(=O)O)NC(=O)[C@H](Cc1c[nH]c2ccccc12)NC(C)=O)[C@@H](C)CC)C(N)=O [LP-52, reference compound] (Ac-WEQKIEELLKKAEEQQKKNEEELKKLEK(Palmitoyl)-NH2) | 17.5 ± 2.05 | 66.7 ± 9.1 | 12.2 ± 0.93 | 9.71 ± 0.81 | 10.9 ± 1.89 | 7.06 ± 1.16 | 13.4 ± 0.94 | 39.2 ± 3.57 | 7.58 ± 0.64 | 27.6 ± 3.33 | 7.98 ± 1.3 | 10.7 ± 1.62 | 4.97 ± 1.31 | 4.66 ± 0.75 | 14.1 ± 1.91 | 46.7 ± 6.96 | 29.7 ± 7.83 | 26.4 ± 3.81 | 20.6 ± 2.67 | 26.9 ± 3.04 | IC50 [21]: 7.22 ± 0.85 pM; IC50 [22, 25]: 7.47 ± 1.9 pM; IC50 [22, 26]: 8.02 ± 3.59 pM; Helix content (%) [23]: 64%; [θ]222 [23]: -21060; [θ]222 ([24]; room temperature): -14952 degree.cm^2.dmol^-1; Helix content (%) [24]: 45%; Tm (°C) [24]: 56 °C
CCCCCCCCCCCCCCCCCC(=O)NCCCC[C@H](NC(=O)[C@H](CCC(=O)O)NC(=O)[C@H](CC(C)C)NC(=O)[C@H](CCCCN)NC(=O)[C@H](CCCCN)NC(=O)[C@H](CC(C)C)NC(=O)[C@H](CCC(=O)O)NC(=O)[C@H](CCC(=O)O)NC(=O)[C@H](CCC(=O)O)NC(=O)[C@H](CC(N)=O)NC(=O)[C@H](CCCCN)NC(=O)[C@H](CCCCN)NC(=O)[C@H](CCC(N)=O)NC(=O)[C@H](CCC(N)=O)NC(=O)[C@H](CCC(=O)O)NC(=O)[C@H](CCC(=O)O)NC(=O)[C@H](C)NC(=O)[C@H](CCCCN)NC(=O)[C@H](CCCCN)NC(=O)[C@H](CC(C)C)NC(=O)[C@H](CC(C)C)NC(=O)[C@H](CCC(=O)O)NC(=O)[C@H](CCC(=O)O)NC(=O)[C@@H](NC(=O)[C@H](CCCCN)NC(=O)[C@H](CCC(N)=O)NC(=O)[C@H](CCC(=O)O)NC(=O)[C@H](Cc1c[nH]c2ccccc12)NC(C)=O)[C@@H](C)CC)C(N)=O [LP-80] (Ac-WEQKIEELLKKAEEQQKKNEEELKKLEK(Stearoyl)-NH2) | 5.27 ± 0.3 | 22.7 ± 5.55 | 5.85 ± 0.86 | 5.01 ± 0.93 | 3.44 ± 0.83 | 3.49 ± 0.4 | 3.81 ± 1.08 | 10.6 ± 2.56 | 1.69 ± 0.48 | 28.5 ± 0.63 | 3.3 ± 0.29 | 4.7 ± 0.35 | 3.56 ± 0.7 | 1.1 ± 0.35 | 3.2 ± 0.68 | 10.4 ± 2.25 | 13 ± 1.67 | 3.12 ± 0.37 | 3.92 ± 0.26 | 8.62 ± 0.74 | IC50 [21]: 1.4 ± 0.61 pM; IC50 [22, 25]: 2.45 pM; IC50 [22, 26]: 4.02 ± 2.63 pM; Helix content (%) [23]: 57%; [θ]222 [23]: -18955; Helix content (%) [24]: 52%; Tm (°C) [24]: 56 °C
